# Patent US20050215564A1, “Methods and compositions for treating hyperproliferative conditions” (priority 2002, published 2005)
# Assays:
# [1] = system: chronic myeloid leukemia and gastrointestinal stromal tumours; settings: humans; cited from earlier work
# [2] = system: ras-transformed fibroblasts (ras 3T3 cells); assay: MTS-based cell-viability assay, control cells (FIG. 3B); settings: for survival (viable surviving fraction): MTS assay at day 5, over the dose range examined; for effect on cell growth: singly or together
# Procedure: Screening Assay. […] Cells were plated and attached overnight in growth media consisting of DMEM with 10% fetal bovine serum (FBS). […] Media with agents was replaced every 48 hours. At day 5 and 8, media was withdrawn and cells were fixed and stained in 0.5% crystal violet in 70% methanol. The crystal violet stained cells reveal a dense intact monolayer in media absent either agent. […] This observed synergistic effect is an important finding in the treatment of diseases characterized by hyperproliferation of cells. […] For cell-counting assays, 5×10^3 cells were plated in triplicate in 100 mm cell culture dishes and allowed to attach overnight as above in DMEM+10% FBS and treated with agents in DMEM+5% PPP. Media and agents were replaced every 48 hours. At day 5 cells were trypsinized and counted with hemacytometer.
# For the MTS-based cell-viability assay, 5×10^3 cells were plated in 24 well dishes overnight in DMEM+10% FBS. […] Each condition was assayed in triplicate. Media and agents were replaced every 48 hours and viable surviving fraction estimated using the MTS assay at day 5 following treatment.
# [3] = system: simian sarcoma virus-transformed NIH/3T3 (sis 3T3) fibroblast cells; assay: Screening assay, crystal violet staining of cells in 12-well dishes (FIG. 1); type: cell-based; settings: single agent in increasing amounts (STI-571 0-3 μM; ADW 0-1 μM), DMEM+5% PPP, crystal violet at day 5 and 8
# Procedure: Screening Assay. […] Cells were plated and attached overnight in growth media consisting of DMEM with 10% fetal bovine serum (FBS). […] Media with agents was replaced every 48 hours. At day 5 and 8, media was withdrawn and cells were fixed and stained in 0.5% crystal violet in 70% methanol. […] For cell-counting assays, 5×10^3 cells were plated in triplicate in 100 mm cell culture dishes and allowed to attach overnight as above in DMEM+10% FBS and treated with agents in DMEM+5% PPP. Media and agents were replaced every 48 hours. At day 5 cells were trypsinized and counted with hemacytometer.
Structure (SMILES),efficacy in treating chronic myeloid leukemia and gastrointestinal stromal tumours [1],survival (viable surviving fraction) [2],effect on cell growth [2],density of cells in the monolayer [3]
Cc1ccc(NC(=O)c2ccc(CN3CCN(C)CC3)cc2)cc1Nc1nccc(-c2cccnc2)n1 [STI-571],effective,no effect on survival,little effect,visibly depleted
"Nc1ncnc2c1c(-c1cccc(OCc3ccccc3)c1)cn2[C@H]1C[C@H](CN2CCCC2)C1 [ADW, trans-5-(3-benzyloxy-phenyl)-7-(3-pyrrolidin-1-ylmethyl-cyclobutyl)-7H-pyrrolo[2,3-d]pyrimidin-4-ylamine]",–,decreased survival,little effect,–
